Values of other authors as cited in US9439866B2, “Trazodone composition for once a day administration” (priority 2005, dated 2016).
“Also recorded” adds a separate entry of the source.

solubility below its pKa (acid media (stomach and upper intestines), pH below pKa): highly soluble
solubility above its pKa (neutral and basic conditions of the lower intestine, pH above pKa): very low; also recorded: poorly soluble
Compound: Cl.O=c1n(CCCN2CCN(c3cccc(Cl)c3)CC2)nc2ccccn12 [trazodone]
